For data set [1], the target named is Voltage-gated inwardly rectifying potassium channel KCNH2 (Homo sapiens, UniProt Q12809). Description: Inhibition of hERG expressed in CHO cells measured for 30 mins by electrophysiological automated patch clamp assay. The data set is classed as toxicity, cell-based. On the technique in general: The hERG channel carries a current that helps repolarise heart muscle cells.

Data set [2] deals with 5-hydroxytryptamine receptor 6 (Homo sapiens, UniProt P50406).
Description: Displacement of [3H]-LSD from human 5-HT6 receptor extracted from CHO-K1 cell membrane assessed as inhibition constant incubated for 60 mins by microbeta2 scintillation counter analysis
The next data set is described as follows: physchem. To be noted: PBS, pH 7.4.
The nature of data set [3]: in vitro. To be noted: PAMPA. Background: The PAMPA barrier holds no transporters, so it reflects passive diffusion.
Description: Permeability of compound by PAMPA based LC-MS analysis
Data set [4] is described as follows: in vitro. Particulars: rat, liver microsomes. A general note: Liver microsomes are vesicles of endoplasmic reticulum, rich in cytochrome P450 enzymes.
Data set [5] is described as follows: in vitro. Particulars: rat, liver microsomes. The source holds these as a separate data set.
The nature of data set [6]: in vitro. Particulars: mouse, HT-22 cells.
Description: Neurotoxicity in mouse HT-22 cells incubated for 24 hrs by PrestoBlue reagent based assay
Data set [7] in a line: in vitro. Particulars: human, HepG2 cells.
Description: Hepatotoxicity in human HepG2 cells incubated for 24 hrs by PrestoBlue reagent based assay

≈ marks a conversion by molar mass, not a printed value. A value given as a limit tells only on which side of the number the result lay.

Sequence of Voltage-gated inwardly rectifying potassium channel KCNH2 (Q12809 whole entry): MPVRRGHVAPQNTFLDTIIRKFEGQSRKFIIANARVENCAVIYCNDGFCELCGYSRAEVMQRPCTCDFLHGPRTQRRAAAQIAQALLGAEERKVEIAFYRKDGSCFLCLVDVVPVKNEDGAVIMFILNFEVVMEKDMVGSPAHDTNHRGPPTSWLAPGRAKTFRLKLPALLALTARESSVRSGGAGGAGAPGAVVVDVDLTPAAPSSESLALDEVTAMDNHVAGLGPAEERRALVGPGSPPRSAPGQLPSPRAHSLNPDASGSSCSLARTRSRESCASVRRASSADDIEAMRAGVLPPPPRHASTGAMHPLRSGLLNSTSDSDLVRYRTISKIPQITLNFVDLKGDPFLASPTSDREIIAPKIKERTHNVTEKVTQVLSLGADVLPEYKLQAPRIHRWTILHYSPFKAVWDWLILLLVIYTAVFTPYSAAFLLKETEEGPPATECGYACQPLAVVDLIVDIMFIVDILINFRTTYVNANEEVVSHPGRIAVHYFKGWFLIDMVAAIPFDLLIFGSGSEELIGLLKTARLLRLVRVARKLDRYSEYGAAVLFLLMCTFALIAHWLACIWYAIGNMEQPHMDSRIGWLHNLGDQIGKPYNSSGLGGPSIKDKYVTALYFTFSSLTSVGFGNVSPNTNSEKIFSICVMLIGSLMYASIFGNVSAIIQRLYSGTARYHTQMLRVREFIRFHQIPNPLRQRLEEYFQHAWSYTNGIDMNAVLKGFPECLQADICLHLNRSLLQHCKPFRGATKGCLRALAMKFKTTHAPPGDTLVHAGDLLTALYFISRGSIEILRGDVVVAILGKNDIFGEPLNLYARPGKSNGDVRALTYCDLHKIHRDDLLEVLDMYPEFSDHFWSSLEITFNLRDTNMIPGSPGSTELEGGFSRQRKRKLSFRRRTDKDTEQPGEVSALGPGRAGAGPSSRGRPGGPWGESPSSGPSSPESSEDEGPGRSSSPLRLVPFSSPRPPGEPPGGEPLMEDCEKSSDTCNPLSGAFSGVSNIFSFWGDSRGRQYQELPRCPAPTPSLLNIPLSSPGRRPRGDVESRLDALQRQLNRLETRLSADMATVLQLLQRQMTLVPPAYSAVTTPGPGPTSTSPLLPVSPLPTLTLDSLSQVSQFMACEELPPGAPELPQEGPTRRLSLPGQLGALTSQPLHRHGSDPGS
Sequence of 5-hydroxytryptamine receptor 6 (P50406 whole entry): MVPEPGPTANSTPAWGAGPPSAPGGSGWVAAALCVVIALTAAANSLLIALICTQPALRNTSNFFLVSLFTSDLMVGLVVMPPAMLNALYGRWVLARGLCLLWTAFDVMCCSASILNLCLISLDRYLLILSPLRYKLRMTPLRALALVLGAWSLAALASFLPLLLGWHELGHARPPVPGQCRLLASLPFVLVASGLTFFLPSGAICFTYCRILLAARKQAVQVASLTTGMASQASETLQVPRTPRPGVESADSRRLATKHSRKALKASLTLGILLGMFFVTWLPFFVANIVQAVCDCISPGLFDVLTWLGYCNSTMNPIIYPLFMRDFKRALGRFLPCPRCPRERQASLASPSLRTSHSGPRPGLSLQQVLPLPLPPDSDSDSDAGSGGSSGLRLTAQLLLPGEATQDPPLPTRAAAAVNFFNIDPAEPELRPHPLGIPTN

One may read the IC50 as the concentration that gives 50% inhibition. A lower IC50 goes with higher potency. One may read the Ki as the dissociation constant of the complex between target and ligand, obtained from inhibition or displacement. A low value points to higher affinity. As a reminder, the solubility is the dissolved amount per volume that the medium holds. A low value points to a poorly soluble substance. The term Papp denotes a coefficient for how fast a substance crosses the barrier. Lower therefore signals poor permeation. By half-life is commonly meant the time needed for the level to fall by half in the phase considered. As usually defined, the microsomal CLint is the rate of metabolic loss divided by the concentration. A higher microsomal CLint goes with rapid turnover. On to `O=c1[nH]c2c(N3CCN(CCc4c[nH]c5ccc(Cl)cc45)CC3)cccc2n1Cc1ccccc1`, for which the IC50 in data set [1] is 4000 nM. The same compound returned an inhibition constant Ki in data set [2] of 8 nM. In the data set “physchem”, this compound gave a solubility at 24 h of 23.4 µM (≈ 11.4 µg/mL). Moreover, in the data set “in vitro [3]”, the Papp worked out at 2.75 ×10⁻⁶ cm/s. Besides, the half-life in the data set “in vitro [4]” is > 1 h. In addition, in the data set “in vitro [5]”, the intrinsic metabolic clearance (microsomal CLint) is < 116 µL/min/mg. Further, the concentration for half-maximal inhibition (IC50) at 24 h amounted to 47000 nM in “in vitro [6]” and 23000 nM in “in vitro [7]”.
The compound `N#Cc1ccc2[nH]cc(CCN3CCN(c4cccc5c4[nH]c(=O)n5Cc4ccccc4)CC3)c2c1` had a half-maximal inhibitory concentration (IC50) in data set [1] of 1700 nM.
In the case of `N#Cc1ccc2[nH]cc(CCCN3CCC(c4cccc5c(S(=O)(=O)c6ccccc6)c[nH]c45)CC3)c2c1`, the half-inhibitory concentration (IC50) in data set [1] is 28100 nM.
Same read-out and setting: to `O=S(=O)(c1ccccc1)c1c[nH]c2c(C3CCN(CCc4c[nH]c5ccc(Cl)cc45)CC3)cccc12` belongs 7000 nM.
Same read-out and setting: with `N#Cc1ccc2[nH]cc(CCCN3CCN(c4cccc5c4[nH]c(=O)n5Cc4ccccc4)CC3)c2c1` the figure was 1200 nM; with `Cc1c(OCc2ccccc2)cccc1N1CCN(CCCCc2c[nH]c3ccc(C#N)cc23)CC1`, 4900 nM.
Still for that read-out and setting: to `O=S(=O)(c1ccccc1)c1c[nH]c2c(C3CCN(CCCc4c[nH]c5ccc(Cl)cc45)CC3)cccc12` belongs 9500 nM; to `N#Cc1ccc2[nH]cc(CCCCN3CCC(c4cccc5c(S(=O)(=O)c6ccccc6)c[nH]c45)CC3)c2c1`, 4600 nM; to `O=S(=O)(c1ccccc1)c1c[nH]c2c(C3CCN(CCCc4c[nH]c5ccc(F)cc45)CC3)cccc12`, 5000 nM.
The compound `O=S(=O)(c1ccccc1)n1ccc2c(N3CCN(CCCc4c[nH]c5ccc(F)cc45)CC3)cccc21` returned a 50% inhibitory concentration (IC50) in data set [1] of 2900 nM.
On the same count and under the same terms, to `O=c1[nH]c2c(N3CCN(CCCc4c[nH]c5ccc(F)cc45)CC3)cccc2n1Cc1ccccc1` belongs 2500 nM; to `N#Cc1ccc2[nH]cc(CCCCN3CCN(c4cccc5c4[nH]c(=O)n5Cc4ccccc4)CC3)c2c1`, 1100 nM.
Compound `N#Cc1ccc2[nH]cc(CCN3CCC(c4cccc5c(S(=O)(=O)c6ccccc6)c[nH]c45)CC3)c2c1` showed a concentration for half-maximal inhibition (IC50) in data set [1] of 1100 nM.
On to `O=S(=O)(c1ccccc1)c1c[nH]c2c(C3CCN(CCc4c[nH]c5ccc(F)cc45)CC3)cccc12`, for which 29300 nM corresponded to half-maximal inhibition in data set [1] (IC50). Moreover, the inhibition constant Ki in data set [2] is 25 nM.
For `O=S(=O)(c1ccccc1)n1ccc2c(N3CCN(CCc4c[nH]c5ccc(Cl)cc45)CC3)cccc21` the same measures were 21300 nM and 19 nM.
In data set [1], `Cc1c(OCc2ccccc2)cccc1N1CCN(CCc2c[nH]c3ccc(C#N)cc23)CC1` had an IC50 of 3600 nM.
Turning to `Cc1c(OCc2ccccc2)cccc1N1CCN(CCc2c[nH]c3ccc(F)cc23)CC1`, in data set [1], the IC50 amounted to 2800 nM. The IC50 values of the last two compounds are within 1.5-fold of each other.
On the same count and under the same terms, with `O=S(=O)(c1ccccc1)n1ccc2c(N3CCN(CCc4c[nH]c5ccc(F)cc45)CC3)cccc21` the figure was 1300 nM.
`Cc1c(OCc2ccccc2)cccc1N1CCN(CCc2c[nH]c3ccc(Cl)cc23)CC1`: the IC50 in data set [1] turned out to be 6600 nM. Further, the affinity in data set [2], expressed as Ki, was 142 nM.
Turning to `O=S(=O)(c1ccccc1)n1ccc2c(N3CCN(CCCc4c[nH]c5ccc(Cl)cc45)CC3)cccc21`, in data set [1], the IC50 was found to be 700 nM.
`O=c1[nH]c2c(N3CCN(CCc4c[nH]c5ccc(F)cc45)CC3)cccc2n1Cc1ccccc1` gave an IC50 in data set [1] of 3900 nM. In addition, the affinity in data set [2], expressed as Ki, was 116 nM.
Take `O=c1[nH]c2c(N3CCN(CCCc4c[nH]c5ccc(Cl)cc45)CC3)cccc2n1Cc1ccccc1`: in data set [1], the midpoint of inhibition, the IC50, lay at 2500 nM.
The same measure, in the same setting: with `Cc1c(OCc2ccccc2)cccc1N1CCN(CCCc2c[nH]c3ccc(C#N)cc23)CC1` the figure was 1100 nM; with `N#Cc1ccc2[nH]cc(CCCN3CCN(c4cccc5c4ccn5S(=O)(=O)c4ccccc4)CC3)c2c1`, 1700 nM.
On the same count and under the same terms, to `N#Cc1ccc2[nH]cc(CCN3CCN(c4cccc5c4ccn5S(=O)(=O)c4ccccc4)CC3)c2c1` belongs 8900 nM; to `Cc1c(OCc2ccccc2)cccc1N1CCN(CCCc2c[nH]c3ccc(Cl)cc23)CC1`, 13600 nM.
The compound `N#Cc1ccc2[nH]cc(CCCCN3CCN(c4cccc5c4ccn5S(=O)(=O)c4ccccc4)CC3)c2c1` returned an IC50 in data set [1] of 1600 nM.
On the same count and under the same terms, with `Cc1c(OCc2ccccc2)cccc1N1CCN(CCCc2c[nH]c3ccc(F)cc23)CC1` the figure was 3300 nM.

The values are drawn from ChEMBL document CHEMBL5579837, “Dual 5-HT6/SERT ligands for mitigating neuropsychiatric symptoms of dementia exerting neuroprotection against amyloid-β toxicity, memory preservation, and antidepressant-like properties” (Eur J Med Chem, 2024).
